Data as given in ChEMBL document CHEMBL5120826, “Effects of β-lapachone and β-nor-lapachone on multidrug efflux transporters and biofilms of Candida glabrata” (Bioorg Med Chem, 2022).
In brackets after ≈: the same amount, converted by molar mass. Activity calls are given as the source filed them. The rule behind the calls is not given here.

Columns and labels:
Saccharomyces cerevisiae [1] = experiment: Indifferent antifungal activity against fluconazole resistant Saccharomyces cerevisiae overexpressing CgCdr1p transporter assessed as fractional inhibitory concentration incubated for 48 hrs in presence of lapachone by checkboard assay based microplate reader analysis; assay type: functional
Saccharomyces cerevisiae [2] = experiment: Indifferent antifungal activity against fluconazole resistant Saccharomyces cerevisiae overexpressing CgCdr2p transporter assessed as fractional inhibitory concentration incubated for 48 hrs in presence of lapachone by checkboard assay based microplate reader analysis; assay type: functional
Saccharomyces cerevisiae [3] = experiment: Indifferent antifungal activity against fluconazole resistant Saccharomyces cerevisiae overexpressing CgCdr1p transporter assessed as fractional inhibitory concentration index incubated for 48 hrs by checkboard assay based microplate reader analysis; assay type: functional
Saccharomyces cerevisiae [4] = experiment: Indifferent antifungal activity against fluconazole resistant Saccharomyces cerevisiae overexpressing CgCdr1p transporter assessed as reduction in fungal growth incubated for 48 hrs in presence of lapachone by checkboard assay based microplate reader analysis; assay type: functional
Saccharomyces cerevisiae [5] = experiment: Antifungal activity against fluconazole resistant Saccharomyces cerevisiae overexpressing CgCdr1p transporter assessed as reduction in fungal growth incubated for 48 hrs by checkboard assay based microplate reader analysis; assay type: functional
Saccharomyces cerevisiae [6] = experiment: Antifungal activity against fluconazole resistant Saccharomyces cerevisiae overexpressing CgCdr2p transporter assessed as reduction in fungal growth incubated for 48 hrs by checkboard assay based microplate reader analysis; assay type: functional
Saccharomyces cerevisiae [7] = experiment: Indifferent antifungal activity against fluconazole resistant Saccharomyces cerevisiae overexpressing CgCdr2p transporter assessed as fractional inhibitory concentration in presence of fluconazole incubated for 48 hrs by checkboard assay based microplate reader analysis; assay type: functional
Saccharomyces cerevisiae [8] = experiment: Indifferent antifungal activity against fluconazole resistant Saccharomyces cerevisiae overexpressing CgCdr2p transporter assessed as reduction in fungal growth incubated for 48 hrs in presence of fluconazole by checkboard assay based microplate reader analysis; assay type: functional
Saccharomyces cerevisiae [9] = experiment: Indifferent antifungal activity against fluconazole resistant Saccharomyces cerevisiae overexpressing CgCdr1p transporter assessed as reduction in fungal growth incubated for 48 hrs in presence of fluconazole by checkboard assay based microplate reader analysis; assay type: functional
Saccharomyces cerevisiae [10] = experiment: Indifferent antifungal activity against fluconazole resistant Saccharomyces cerevisiae overexpressing CgCdr2p transporter assessed as fractional inhibitory concentration index incubated for 48 hrs by checkboard assay based microplate reader analysis; assay type: functional
Saccharomyces cerevisiae [11] = experiment: Indifferent antifungal activity against fluconazole resistant Saccharomyces cerevisiae overexpressing CgCdr1p transporter assessed as fractional inhibitory concentration in presence of fluconazole incubated for 48 hrs by checkboard assay based microplate reader analysis; assay type: functional
Saccharomyces cerevisiae [12] = experiment: Indifferent antifungal activity against fluconazole resistant Saccharomyces cerevisiae overexpressing CgCdr2p transporter assessed as reduction in fungal growth incubated for 48 hrs in presence of lapachone by checkboard assay based microplate reader analysis; assay type: functional
Saccharomyces cerevisiae [13] = experiment: Antifungal activity against fluconazole resistant Saccharomyces cerevisiae overexpressing CgCdr1p transporter assessed as reduction in fungal growth at lower concentration incubated for 48 hrs by serial dilution method; assay type: functional, organism-based

| SMILES | FIC (Saccharomyces cerevisiae [1]) [µg/mL] | FIC (Saccharomyces cerevisiae [2]) [µg/mL] | fractional inhibitory concentration index (FICI) (Saccharomyces cerevisiae [3]) | MIC (Saccharomyces cerevisiae [4]) [mg/L] | MIC (Saccharomyces cerevisiae [5]) [mg/L] | MIC (Saccharomyces cerevisiae [6]) [mg/L] | FIC (Saccharomyces cerevisiae [7]) [µg/mL] | MIC (Saccharomyces cerevisiae [8]) [mg/L] | MIC (Saccharomyces cerevisiae [9]) [mg/L] | fractional inhibitory concentration index (FICI) (Saccharomyces cerevisiae [10]) | FIC (Saccharomyces cerevisiae [11]) [µg/mL] | MIC (Saccharomyces cerevisiae [12]) [mg/L] | Activity (Saccharomyces cerevisiae [13]) |
| --- | --- | --- | --- | --- | --- | --- | --- | --- | --- | --- | --- | --- | --- |
| CC1(C)CCC2=C(O1)C(=O)c1ccccc1C2=O [ALPHA-LAPACHONE] | 1 | 1 | 2 | > 100 | > 100 | > 62.5 | 1 | 62.5 | 500 | 2 | 1 | > 100 | – |
| CC1(C)CC2=C(O1)C(=O)c1ccccc1C2=O | 1 | 1 | 2 | > 100 | > 100 | 12.5 (≈ 54.8 µM) | 1 | 62.5 | 500 | 2 | 1 | 12.5 | – |
| OC(Cn1cncn1)(Cn1cncn1)c1ccc(F)cc1F | – | – | – | – | – | – | – | – | – | – | – | – | Active |
